Test results published in ChEMBL document CHEMBL1201862, “PubChem BioAssay data set” (2004).
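1) Cells in 96-well plates. 2) Compound, 48 h, 5 concentrations. 3) Linear interpolation between surrounding doses. 4) Unreached endpoint = highest concentration. GI50: concentration for 50% inhibition of growth.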 The source made the active and inactive calls. No stated cut-off is given here; in the data, active = GI50 up to about 1.1 µM and inactive = higher.

Legend:
Test in all cases: NCI-60 cell line screen, 48 h
[1] = tested on: HL-60
[2] = tested on: UO-31
[3] = tested on: NCI-H226
[4] = tested on: U-251
[5] = tested on: UACC-257
[6] = tested on: Malme-3M
[7] = tested on: SW-620
[8] = tested on: HCT-116
[9] = tested on: SNB-19
[10] = tested on: NCI-H522
[11] = tested on: NCI-H460
[12] = tested on: K562
[13] = tested on: OVCAR-5
[14] = tested on: SK-MEL-2
[15] = tested on: UACC-62
[16] = tested on: SN12C
[17] = tested on: SF-539
[18] = tested on: SF-295

Measured: GI50

O=C(O)C12C3C4C1C1C2C3C41I (stereo unspecified)
inactive: [1] > 100 µM | [2] > 100 µM | [3] > 100 µM | [4] > 100 µM | [5] > 100 µM | [6] > 100 µM | [7] > 100 µM | [8] > 100 µM | [9] > 100 µM | [10] > 100 µM | [11] > 100 µM | [12] > 100 µM | [13] > 100 µM | [14] > 100 µM | [15] > 100 µM | [16] > 100 µM | [17] > 100 µM | [18] > 100 µM

COC(=O)CC[C@@H](NC(=O)C(C)NC(=O)COC1C(O)C(COC(=O)CCCCCCCCCCNC(=O)c2ccc([N+](=O)[O-])c3[nH]c4cc(Br)ccc4c(=O)c23)OC(OCc2ccccc2)C1NC(C)=O)C(N)=O (stereo partly specified)
inactive: [1] 23 µM | [2] > 100 µM | [3] 25.1 µM | [4] > 100 µM | [5] > 100 µM | [6] > 100 µM | [7] > 100 µM | [8] > 100 µM | [9] 94 µM | [10] 32.7 µM | [11] 57.3 µM | [12] 44.4 µM | [13] 37.3 µM | [14] 95.1 µM | [15] 65.8 µM | [16] > 100 µM | [17] > 100 µM | [18] > 100 µM

O=C1C(Cl)=C(Cl)C(=O)N1c1ccc(Cl)c(Cl)c1Cl
inactive: [1] 24.3 µM | [2] > 100 µM | [3] > 100 µM | [4] > 100 µM | [5] > 100 µM | [6] 31.6 µM | [7] 35.5 µM | [8] 85.9 µM | [9] 57.8 µM | [10] 14.4 µM | [11] > 100 µM | [12] 30.5 µM | [13] > 100 µM | [14] > 100 µM | [15] 30.5 µM | [16] 58.1 µM | [17] > 100 µM | [18] > 100 µM

O=c1/c(=C/c2ccco2)sc2nc3ccccc3n12
inactive: [1] > 10 µM | [2] > 10 µM | [3] > 10 µM | [4] > 10 µM | [5] > 10 µM | [6] > 10 µM | [7] > 10 µM | [8] > 10 µM | [9] > 10 µM | [10] > 10 µM | [11] > 10 µM | [12] > 10 µM | [13] > 10 µM | [14] > 10 µM | [15] > 10 µM | [16] > 10 µM | [17] > 10 µM | [18] > 10 µM

CC#CC1/C(=C\C(=O)OC)CCCC1O (stereo unspecified)
inactive: [1] > 100 µM | [2] > 100 µM | [3] > 100 µM | [4] > 100 µM | [5] > 100 µM | [6] > 100 µM | [7] > 100 µM | [8] > 100 µM | [9] > 100 µM | [10] > 100 µM | [11] > 100 µM | [12] > 100 µM | [13] > 100 µM | [14] > 100 µM | [15] > 100 µM | [16] > 100 µM | [17] > 100 µM | [18] > 100 µM

NC(=O)COc1ccc(Br)cc1Br
inactive: [1] > 100 µM | [2] > 100 µM | [3] > 100 µM | [4] > 100 µM | [5] > 100 µM | [6] > 100 µM | [7] > 100 µM | [8] > 100 µM | [9] > 100 µM | [10] > 100 µM | [11] > 100 µM | [12] > 100 µM | [13] > 100 µM | [14] > 100 µM | [16] > 100 µM | [17] > 100 µM | [18] > 100 µM

CC1(C)OC(C[C@]2(C#N)C[C@H](CCl)OC(C)(C)O2)C[C@@H](C[C@]2(C#N)C[C@H](CCl)OC(C)(C)O2)O1 (stereo partly specified)
inactive: [1] > 100 µM | [3] > 100 µM | [4] > 100 µM | [5] 17.3 µM | [6] > 100 µM | [7] > 100 µM | [8] 60.4 µM | [9] > 100 µM | [10] > 100 µM | [11] > 100 µM | [12] > 100 µM | [13] > 100 µM | [14] > 100 µM | [15] > 100 µM | [16] > 100 µM | [17] > 100 µM | [18] > 100 µM

C/C=C1\CN2CCc3c([nH]c4ccccc34)C2CC1C(=O)OC (stereo unspecified)
inactive: [1] > 32.2 µM | [3] > 322 µM | [4] > 322 µM | [5] > 322 µM | [6] > 322 µM | [7] > 322 µM | [8] > 322 µM | [9] > 322 µM | [10] 287 µM | [11] > 322 µM | [12] > 322 µM | [13] > 322 µM | [14] > 322 µM | [15] > 322 µM | [16] > 322 µM | [17] > 322 µM | [18] > 322 µM
